# Source: a compilation of properties of binary mixtures (doi:10.1007/s10953-016-0465-y)
# Experiment: xn = mol fraction of the nth substance listed
# Details: 101 kPa
structure (smiles),measurement,setting,value
CCOS(=O)(=O)[O-].CC[n+]1ccn(C)c1 + COCCO,speed of sound,"298.15 K, x1 = 0.049",1381 m/s
same,speed of sound,"298.15 K, x1 = 0.0819",1403 m/s
same,speed of sound,"298.15 K, x1 = 0.1453",1441 m/s
same,speed of sound,"298.15 K, x1 = 0.1765",1457.4 m/s
same,speed of sound,"298.15 K, x1 = 0.2557",1494.5 m/s
same,speed of sound,"298.15 K, x1 = 0.5453",1592.2 m/s
same,speed of sound,"298.15 K, x1 = 0.6466",1617.7 m/s
same,speed of sound,"298.15 K, x1 = 0.7562",1641.6 m/s
same,speed of sound,"298.15 K, x1 = 0.8206",1654 m/s
same,speed of sound,"298.15 K, x1 = 0.951",1674.9 m/s
same,speed of sound,"298.15 K, x1 = 1",1680.8 m/s
same,speed of sound,"308.15 K, x1 = 0.1453",1412 m/s
same,speed of sound,"308.15 K, x1 = 0.1765",1429 m/s
same,speed of sound,"308.15 K, x1 = 0.3386",1500.6 m/s
same,speed of sound,"308.15 K, x1 = 0.4472",1537.2 m/s
same,speed of sound,"308.15 K, x1 = 0.5453",1565.7 m/s
same,speed of sound,"308.15 K, x1 = 0.8206",1629.2 m/s
same,speed of sound,"308.15 K, x1 = 0.8868",1641 m/s
same,speed of sound,"308.15 K, x1 = 0.951",1650.6 m/s
same,speed of sound,"308.15 K, x1 = 1",1656.4 m/s
same,speed of sound,"318.15 K, x1 = 0.049",1316.1 m/s
same,speed of sound,"318.15 K, x1 = 0.0819",1340.4 m/s
same,speed of sound,"318.15 K, x1 = 0.1453",1381.9 m/s
same,speed of sound,"318.15 K, x1 = 0.1765",1399.5 m/s
same,speed of sound,"318.15 K, x1 = 0.2557",1438.7 m/s
same,speed of sound,"318.15 K, x1 = 0.3386",1472.9 m/s
same,speed of sound,"318.15 K, x1 = 0.4472",1510.3 m/s
same,speed of sound,"318.15 K, x1 = 0.5453",1539.3 m/s
same,speed of sound,"318.15 K, x1 = 0.6466",1565.9 m/s
same,speed of sound,"318.15 K, x1 = 0.7562",1591.4 m/s
same,speed of sound,"318.15 K, x1 = 0.8206",1604.6 m/s
same,speed of sound,"318.15 K, x1 = 0.951",1626.6 m/s
same,speed of sound,"328.15 K, x1 = 0.049",1282.9 m/s
same,speed of sound,"328.15 K, x1 = 0.0819",1308 m/s
same,speed of sound,"328.15 K, x1 = 0.1765",1369.2 m/s
same,speed of sound,"328.15 K, x1 = 0.2557",1410 m/s
same,speed of sound,"328.15 K, x1 = 0.4472",1484.3 m/s
same,speed of sound,"328.15 K, x1 = 0.5453",1514.2 m/s
same,speed of sound,"328.15 K, x1 = 0.6466",1541.3 m/s
same,speed of sound,"328.15 K, x1 = 0.7562",1567 m/s
same,speed of sound,"328.15 K, x1 = 0.8206",1580.4 m/s
same,speed of sound,"328.15 K, x1 = 0.951",1602.8 m/s
same,speed of sound,"328.15 K, x1 = 1",1608.9 m/s
COCCO + CCOS(=O)(=O)[O-].CC[n+]1ccn(C)c1,speed of sound,"298.15 K, x2 = 0",1344 m/s
same,speed of sound,"308.15 K, x2 = 0",1309.2 m/s
same,speed of sound,"318.15 K, x2 = 0",1274.5 m/s
same,speed of sound,"328.15 K, x2 = 0",1240.1 m/s
